This note sets out measurements from patent publication US10316049B2, “Tank-binding kinase inhibitor compounds” (Gilead Sciences, Inc., priority 2015, dated 2019).

The target in one assay is T1, IKKε (Homo sapiens, UniProt Q14164).
T1 construct: TBK1 and IKKε were expressed and purified as full length recombinant proteins; made in house
T1 sequence (Q14164 1-716): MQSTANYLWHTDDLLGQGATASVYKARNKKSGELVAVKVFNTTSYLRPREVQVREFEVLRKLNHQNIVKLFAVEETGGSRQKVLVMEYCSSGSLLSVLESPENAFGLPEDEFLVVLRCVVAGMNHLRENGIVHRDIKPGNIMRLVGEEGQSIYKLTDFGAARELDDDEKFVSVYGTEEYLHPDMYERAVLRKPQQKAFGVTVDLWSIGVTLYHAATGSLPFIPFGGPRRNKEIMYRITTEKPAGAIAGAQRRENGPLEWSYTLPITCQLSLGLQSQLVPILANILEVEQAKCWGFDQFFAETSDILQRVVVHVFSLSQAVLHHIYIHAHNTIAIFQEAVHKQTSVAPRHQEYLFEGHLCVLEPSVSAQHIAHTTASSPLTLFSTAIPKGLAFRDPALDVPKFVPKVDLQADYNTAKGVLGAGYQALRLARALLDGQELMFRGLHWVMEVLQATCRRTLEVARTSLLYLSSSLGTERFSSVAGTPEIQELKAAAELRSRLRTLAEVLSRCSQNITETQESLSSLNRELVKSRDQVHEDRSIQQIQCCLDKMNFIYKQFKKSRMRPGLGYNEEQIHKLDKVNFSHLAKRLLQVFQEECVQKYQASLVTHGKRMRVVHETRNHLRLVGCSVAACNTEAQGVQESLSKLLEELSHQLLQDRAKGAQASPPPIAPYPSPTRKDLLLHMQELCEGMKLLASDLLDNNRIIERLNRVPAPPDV
Kind of assay: TR-FRET enzymatic activity assay, IKKε. Further: full length recombinant IKKε at 0.3 nM. It is filed as biochemical. The following applies: read-out: IKKϵ IC50. The procedure: (§1) Biological Assay for TBK1 and IKKε:
Enzymatic activity of IKKε and TBK1 was measured using a homogeneous time resolved fluorescence resonance energy transfer (TR-FRET) assay that monitors enzyme dependent phosphorylation of a biotinylated serine/threonine peptide substrate. […] TBK1 and IKKε were expressed and purified as full length recombinant proteins. Detection reagents for the assay were purchased from Cisbio. […] After an assay reaction time of 240 minutes at 25° C., reactions were terminated with EDTA.
(§2) Amount of phosphorylated peptide was determined by the addition of 125 nM streptavidin XL665 and europium cryptate labeled anti-phospho monoclonal antibody and the resulting TR-FRET signal was recorded on an Envision plate reader (Ex: 340 nm; Em: 615/665 nm; 100 μs delay and 200 μs read window). Data was normalized based on a positive (1 μM Staurosporine) and negative (DMSO) controls and IC50 values calculated from the fit of the dose-response curves to a four-parameter equation. All IC50 values represent geometric mean values of a minimum of four determinations.

The next assay addresses T2, TBK1 (Homo sapiens, UniProt Q9UHD2).
T2 construct: TBK1 and IKKε were expressed and purified as full length recombinant proteins; made in house
T2 sequence (Q9UHD2 1-729): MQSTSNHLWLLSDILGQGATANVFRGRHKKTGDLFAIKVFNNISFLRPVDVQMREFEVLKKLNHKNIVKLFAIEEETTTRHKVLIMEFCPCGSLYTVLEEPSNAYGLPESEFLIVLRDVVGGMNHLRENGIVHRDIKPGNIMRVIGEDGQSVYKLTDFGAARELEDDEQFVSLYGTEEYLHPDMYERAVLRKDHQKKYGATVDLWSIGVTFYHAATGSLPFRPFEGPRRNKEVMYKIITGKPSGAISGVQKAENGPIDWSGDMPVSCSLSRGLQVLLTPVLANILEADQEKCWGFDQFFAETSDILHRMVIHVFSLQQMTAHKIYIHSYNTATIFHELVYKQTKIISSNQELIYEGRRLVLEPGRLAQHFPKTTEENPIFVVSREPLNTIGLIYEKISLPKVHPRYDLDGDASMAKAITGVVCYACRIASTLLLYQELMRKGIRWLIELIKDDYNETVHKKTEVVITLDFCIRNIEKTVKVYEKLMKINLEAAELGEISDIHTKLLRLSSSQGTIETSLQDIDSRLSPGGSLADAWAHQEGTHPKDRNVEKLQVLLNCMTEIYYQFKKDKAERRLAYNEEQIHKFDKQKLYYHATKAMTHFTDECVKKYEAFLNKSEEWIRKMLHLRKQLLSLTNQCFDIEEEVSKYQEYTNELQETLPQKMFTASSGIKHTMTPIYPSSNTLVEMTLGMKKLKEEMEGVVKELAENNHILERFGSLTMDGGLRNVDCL
Kind of assay: TR-FRET enzymatic activity assay, TBK1. Further: full length recombinant TBK1 at 2.5 nM. It is filed as biochemical. Here is the method:
as §1
Enzymatic activity of IKKε and TBK1 was measured using a homogeneous time resolved fluorescence resonance energy transfer (TR-FRET) assay that monitors enzyme dependent phosphorylation of a biotinylated serine/threonine peptide substrate. An increase in the amount of phosphorylated peptide results in an increase in TR-FRET signal. TBK1 and IKKε were expressed and purified as full length recombinant proteins. Detection reagents for the assay were purchased from Cisbio. […] After an assay reaction time of 240 minutes at 25° C., reactions were terminated with EDTA.
as §2, with “determinations. These assays generally produced results within 3-fold of the reported mean.” for “determinations.”

For orientation: IC50 means the concentration needed to halve the response being measured. Consider `N#Cc1cc(-c2ccnc(NC(=O)[C@@H]3C[C@H]3C(=O)NCCO)c2)ccc1OC1CCOCC1` (relative stereo) [Example 46, (1,2-trans)-N1-(4-(3-cyano-4-((tetrahydro-2H-pyran-4-yl)oxy)phenyl)pyridin-2-yl)-N2-(2-hydroxyethyl)cyclopropane-1,2-dicarboxamide], for which the IC50 at IKKε was 429 nM; against TBK1 it was 302 nM.
For `N#Cc1cc(-c2ccnc(NC(=O)[C@@H]3C[C@H]3c3cccnc3)c2)ccc1O[C@H]1CCN(C(=O)CO)CC1(F)F` [Example 141, (1R,2R)—N-(4-(3-cyano-4-(((S)-3,3-difluoro-1-(2-hydroxyacetyl)piperidin-4-yl)oxy)phenyl)pyridin-2-yl)-2-(pyridin-3-yl)cyclopropane-1-carboxamide] the same measures were 11.2 nM and 17.3 nM.
On the same counts, the results for `CC(C)(C)OC(=O)N1CC[C@H](Oc2ccc(-c3cc(NC(=O)C4CC4)ncn3)cc2C#N)C(F)(F)C1` [Example 104, Tert-butyl (S)-4-(2-cyano-4-(6-(cyclopropanecarboxamido)pyrimidin-4-yl)phenoxy)-3,3-difluoropiperidine-1-carboxylate] are above 1000 nM and above 1000 nM.
For `N#Cc1cc(-c2ccnc(NC(=O)[C@H]3C[C@@H]3c3cscn3)c2)ccc1OC1CCOCC1` (relative stereo) [Example 123, (1,2-Trans)-N-(4-(3-cyano-4-((tetrahydro-2H-pyran-4-yl)oxy)phenyl)pyridin-2-yl)-2-(thiazol-4-yl)cyclopropane-1-carboxamide] the same measures were above 1000 nM and 938 nM.
Consider `N#Cc1cc(-c2ccnc(NC(=O)[C@@H]3C[C@@H]3C(=O)O)c2)ccc1O[C@H]1CCN(C(=O)CO)C[C@H]1F` [Example 73, (1,2-cis)-2-((4-(3-cyano-4-(((3R,4S)-3-fluoro-1-(2-hydroxyacetyl)piperidin-4-yl)oxy)phenyl)pyridin-2-yl)carbamoyl)cyclopropane-1-carboxylic acid], for which the half-inhibitory concentration (IC50) on IKKε is above 1000 nM; at TBK1 it was 740 nM.
Turning to `Cn1ccc([C@H]2C[C@@H]2C(=O)Nc2cc(-c3ccc(O[C@H]4CCN(C(=O)CO)CC4(F)F)c(C#N)c3)ccn2)n1` [Example 103, (1S,2S)—N-(4-(3-cyano-4-(((S)-3,3-difluoro-1-(2-hydroxyacetyl)piperidin-4-yl)oxy)phenyl)pyridin-2-yl)-2-(1-methyl-1H-pyrazol-3-yl)cyclopropane-1-carboxamide], the values for the concentration for half-maximal inhibition (IC50) on IKKε and against TBK1 were 14.3 nM and 5.7 nM, respectively.
For `Cn1cc(C2C[C@H]2C(=O)Nc2cc(-c3ccc(O[C@H]4CCN(C(=O)CO)CC4(F)F)c(C#N)c3)ccn2)cn1` (stereo in doubt) [Example 89, (1,2-trans)-N-(4-(3-cyano-4-(((S)-3,3-difluoro-1-(2-hydroxyacetyl)piperidin-4-yl)oxy)phenyl)pyridin-2-yl)-2-(1-methyl-1H-pyrazol-4-yl)cyclopropane-1-carboxamide] the same measures were 2.4 nM and 4.5 nM.
On the same counts, the results for `N#CCC(=O)N1CC[C@H](Oc2ccc(-c3ccnc(NC(=O)C4CC4)c3)cc2C#N)C(F)(F)C1` [Example 13, (S)—N-(4-(3-cyano-4-((1-(2-cyanoacetyl)-3,3-difluoropiperidin-4-yl)oxy)phenyl)pyridin-2-yl)cyclopropanecarboxamide] are 44 nM and 12.4 nM.
Turning to `N#Cc1cc(-c2ccnc(NC(=O)C3CC3)c2)ccc1O[C@H]1CCN(C(=O)CO)CC1(F)F` [Example 10, (S)—N-(4-(3-cyano-4-((3,3-difluoro-1-(2-hydroxyacetyl)piperidin-4-yl)oxy)phenyl)pyridin-2-yl)cyclopropanecarboxamide], the IC50 is 7.4 nM at IKKε and 4.2 nM against TBK1.
For `N#Cc1cc(-c2ccnc(NC(=O)[C@@H]3C[C@H]3c3cccnc3)c2)ccc1O[C@H]1CCN(C(=O)CO)C[C@H]1F` (relative stereo) [Example 127] the same measures were 33.2 nM and 12.2 nM.
On the same counts, the results for `Cn1cc([C@@H]2C[C@H]2C(=O)Nc2cc(-c3ccc(O[C@H]4CCN(C(=O)CO)CC4(F)F)c(C#N)c3)ccn2)cn1` [Example 121, (1R,2R)—N-(4-(3-cyano-4-(((S)-3,3-difluoro-1-(2-hydroxyacetyl)piperidin-4-yl)oxy)phenyl)pyridin-2-yl)-2-(1-methyl-1H-pyrazol-4-yl)cyclopropane-1-carboxamide] are 6.2 nM and 7.2 nM.
For `N#Cc1cc(-c2cc(NC(=O)C3CC3)ncn2)ccc1O[C@H]1CCN(C(=O)[C@@H]2COC(=O)N2)CC1(F)F` [Example 155, N-(6-(3-cyano-4-(((S)-3,3-difluoro-1-((S)-2-oxooxazolidine-4-carbonyl)piperidin-4-yl)oxy)phenyl)pyrimidin-4-yl)cyclopropanecarboxamide] the same measures were 52.6 nM and 7 nM.
Turning to `N#Cc1cc(-c2ccnc(NC(=O)C3(C#N)CC3)c2)ccc1O[C@H]1CCN(C(=O)CO)C[C@H]1F` [Example 63, 1-Cyano-N-(4-(3-cyano-4-(((3R,4S)-3-fluoro-1-(2-hydroxyacetyl)piperidin-4-yl)oxy)phenyl)pyridin-2-yl)cyclopropane-1-carboxamide], the IC50 at IKKε and against TBK1 was above 1000 nM throughout.
With `Cn1cc([C@@H]2C[C@H]2C(=O)Nc2cc(-c3ccc(O[C@H]4CCN(C(=O)CO)CC4(F)F)c(C#N)c3)ncn2)cn1` [Example 128, (1,2-Trans)-N-(6-(3-cyano-4-(((S)-3,3-difluoro-1-(2-hydroxyacetyl)piperidin-4-yl)oxy)phenyl)pyrimidin-4-yl)-2-(1-methyl-1H-pyrazol-4-yl)cyclopropane-1-carboxamide], on TBK1, it took 7.2 nM to reach half-maximal inhibition (IC50).
The same measure, in the same setting: the result for `Cn1cc([C@H]2C[C@@H]2C(=O)Nc2cc(-c3ccc(O[C@H]4CCN(C(=O)CO)CC4(F)F)c(C#N)c3)ncn2)cn1` [Example 138, (1S,2S)—N-(6-(3-cyano-4-(((S)-3,3-difluoro-1-(2-hydroxyacetyl)piperidin-4-yl)oxy)phenyl)pyrimidin-4-yl)-2-(1-methyl-1H-pyrazol-4-yl)cyclopropane-1-carboxamide] reads 5.9 nM; that for `Cn1cc([C@@H]2C[C@H]2C(=O)Nc2cc(-c3ccc(O[C@H]4CCN(C(=O)CO)CC4(F)F)c(C#N)c3)ncn2)cn1` [Example 137, (1R,2R)—N-(6-(3-cyano-4-(((S)-3,3-difluoro-1-(2-hydroxyacetyl)piperidin-4-yl)oxy)phenyl)pyrimidin-4-yl)-2-(1-methyl-1H-pyrazol-4-yl)cyclopropane-1-carboxamide], 21.4 nM.
